Here are results for 19 compounds from ChEMBL document CHEMBL1130706, “Synthesis and structure-activity relationships of adenosine analogs as inhibitors of trypanosomal glyceraldehyde-3-phosphate dehydrogenase. Modifications at positions 5' and 8” (Bioorg Med Chem Lett, 1998).

Data set [1] has as its system Leishmania mexicana. As to the kind of experiment: Inhibition of Leishmania mexicana GAPDH(glyceraldehyde-3-phosphate dehydrogenase). On the set-up: concentration or dose not given beside the values. To be noted: concentration not given here.
Data set [2] concerns Leishmania mexicana.
Description: Inhibition of Leishmania mexicana GAPDH(glyceraldehyde-3-phosphate dehydrogenase) expressed as KM value
Data set [3] relates to CC(C)=CCNc1ncnc2c1nc(-c1cccs1)n2C1O[C@H](CO)[C@@H](O)[C@H]1O.
Description: Inhibition of human erythrocyte GAPDH(glyceraldehyde-3-phosphate dehydrogenase) expressed as KM value

Glyceraldehyde-3-phosphate dehydrogenase (Homo sapiens), P04406, sequence (P04406 whole entry): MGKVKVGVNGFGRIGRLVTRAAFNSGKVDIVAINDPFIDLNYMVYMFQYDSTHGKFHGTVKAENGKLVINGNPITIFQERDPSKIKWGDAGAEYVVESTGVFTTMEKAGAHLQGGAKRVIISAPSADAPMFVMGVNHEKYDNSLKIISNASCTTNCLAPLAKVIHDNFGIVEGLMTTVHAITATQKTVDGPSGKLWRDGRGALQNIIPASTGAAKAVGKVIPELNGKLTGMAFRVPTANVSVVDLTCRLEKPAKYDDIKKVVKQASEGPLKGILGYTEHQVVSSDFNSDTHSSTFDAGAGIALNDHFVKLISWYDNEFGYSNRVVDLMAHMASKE

The term inhibition denotes how much of the control response was suppressed. `Nc1ncnc2c1ncn2C1O[C@H](COC(=O)CCC(=O)O)[C@@H](O)[C@H]1O` (some centres undefined): the inhibition in the data set with Leishmania mexicana [1] amounted to 100%. The term Km denotes the substrate concentration at which the rate is half of its maximum. As to `CC(C)=CCNc1ncnc2c1nc(-c1cccs1)n2C1O[C@H](CO)[C@@H](O)[C@H]1O` (some centres undefined), the Km in the data set on Leishmania mexicana [2] worked out at 400 µM. In turn, `CN(C)c1nc2c(N)ncnc2n1C1O[C@H](CO)[C@@H](O)[C@H]1O` (some centres undefined) returned an inhibition in the data set on Leishmania mexicana [1] of 75%. In turn, `OC[C@H]1OC(n2c(-c3cccs3)nc3c(NCc4ccccc4)ncnc32)[C@H](O)[C@@H]1O` (some centres undefined) returned an inhibition in the data set on Leishmania mexicana [1] of 100%. Compound `Nc1ncnc2c1ncn2[C@@H]1O[C@H](COC(=O)c2ccccc2)[C@@H](O)[C@H]1O` registered an inhibition in the data set with Leishmania mexicana [1] of 67%. Regarding `Nc1ncnc2c1nc(N1CCCCC1)n2[C@@H]1O[C@H](CO)[C@@H](O)[C@H]1O`, the inhibition in the data set with Leishmania mexicana [1] amounted to 100%. Turning to `CC(C)=CCNc1ncnc2c1ncn2[C@@H]1O[C@H](CO)[C@@H](O)[C@H]1O`, the inhibition with Leishmania mexicana [1] is 84%. In the case of `O=C(O)CCCC(=O)NC[C@H]1OC(n2cnc3c(NCc4ccccc4)ncnc32)[C@H](O)[C@@H]1O` (some centres undefined), in the data set with Leishmania mexicana [1], the inhibition amounted to 79%. In the data set on Leishmania mexicana [1], `COc1cccc(C(=O)N[C@@H]2[C@H](O)[C@@H](COC(=O)c3ccccc3C(=O)O)O[C@H]2n2cnc3c(NCc4ccccc4)ncnc32)c1` gave an inhibition of 100%. `O=C(CC1CCCCC1)NC[C@H]1OC(n2cnc3c(NCc4ccccc4)ncnc32)[C@H](O)[C@@H]1O` (some centres undefined) displayed an inhibition in the data set on Leishmania mexicana [1] of 77%. For `Nc1ncnc2c1ncn2C1O[C@H](COC(=O)c2ccc3ccccc3c2)[C@@H](O)[C@H]1O` (some centres undefined), the inhibition with Leishmania mexicana [1] is 100%. Compound `O=C(NC[C@H]1OC(n2cnc3c(NCc4ccccc4)ncnc32)[C@H](O)[C@@H]1O)c1cc(O)cc(O)c1` (some centres undefined) displayed an inhibition in the data set on Leishmania mexicana [1] of 100%. `Nc1ncnc2c1nc(N1CCCC1)n2C1O[C@H](CO)[C@@H](O)[C@H]1O` (some centres undefined) came in with an inhibition in the data set with Leishmania mexicana [1] of 100%. The same measure, in the same setting: the value for `NC(=O)CCC(=O)NC[C@H]1OC(n2cnc3c(NCc4ccccc4)ncnc32)[C@H](O)[C@@H]1O` (some centres undefined) was 74%. Regarding “Glyceraldehyde-3-phosphate dehydrogenase (Homo sapiens), P04406”, the Km in data set [3] came to 40 µM.

Turning to `Cc1ccccc1CNc1ncnc2c1nc(-c1cccs1)n2C1O[C@H](CO)[C@@H](O)[C@H]1O` (some centres undefined), in the data set on Leishmania mexicana [1], the inhibition is 100%.

`Nc1ncnc2c1nc(NCc1ccccc1)n2[C@@H]1O[C@H](CO)[C@@H](O)[C@H]1O` had an inhibition with Leishmania mexicana [1] of 100%.

For the compound `O=C(Cc1ccccc1)NC[C@H]1OC(n2cnc3c(NCc4ccccc4)ncnc32)[C@H](O)[C@@H]1O` (some centres undefined), the inhibition with Leishmania mexicana [1] stood at 77%. On to `Nc1ncnc2c1nc(NCCO)n2C1O[C@H](CO)[C@@H](O)[C@H]1O` (some centres undefined), for which, in the data set on Leishmania mexicana [1], the inhibition was found to be 80%.
